Like-named read-outs stand apart in the source and are kept apart here.
Columns and labels:
[1] = 90th percentile of the particle size distribution as measured by length, from WO 2009/120167 A1, cited from earlier work
[2] = gravimetric moisture sorption desorption isotherm; assay type: physicochemical; details: 0 to 95% relative humidity, (25.0 ± 0.1) °C
Experimental: Gravimetric moisture sorption desorption isotherm was acquired using a SPS-11 moisture sorption analyzer (MD Messtechnik, Ulm, D). The sample was weighed into an Aluminium sample holder. […] The water content of the samples was determined after the moisture sorption/ desorption experiments with a TGA 7 system (Perkin Elmer, Norwalk, Ct., USA) using the Pyris 2.0 software according to the above described method.

[3] = cited from earlier work; for solubility in H2O: value of the organic solvent incorporated into the crystal structure, not of the crystal form

For `CCOc1cc([C@@H](CS(C)(=O)=O)N2C(=O)c3cccc(NC(C)=O)c3C2=O)ccc1OC` [Form D, N-[2-[(1S)-1-(3-ethoxy-4-methoxyphenyl)-2-(methylsulfonyl)ethyl]-2,3-dihydro-1,3-dioxo-1H-isoindol-4-yl]acetamide], the D90 ([1]; listed as D) is given as < 18 microm.
For `CCOc1cc([C@@H](CS(C)(=O)=O)N2C(=O)c3cccc(NC(C)=O)c3C2=O)ccc1OC` [Form G, N-[2-[(1S)-1-(3-ethoxy-4-methoxyphenyl)-2-(methylsulfonyl)ethyl]-2,3-dihydro-1,3-dioxo-1H-isoindol-4-yl]acetamide], the D90 ([1]; listed as G) is given as < 18 microm.
For “N-[2-[(1S)-1-(3-ethoxy-4-methoxyphenyl)-2-(methylsulfonyl)ethyl]-2,3-dihydro-1,3-dioxo-1H-isoindol-4-yl]acetamide ethanol solvate”, the hygroscopicity [2] was “non-hygroscopic (compounds showing a mass change of less than 2 weight% based on the weight of the compound in the range of from 0 to 95% relative humidity at (25.0 ± 0.1) °C)” and the mass change ([2]; based on the weight of the crystalline ethanol solvate) was “less than 0.5 % w/w”.
In the case of `CCOc1cc([C@@H](CS(C)(=O)=O)N2C(=O)c3cccc(NC(C)=O)c3C2=O)ccc1OC` [Form E, N-[2-[(1S)-1-(3-ethoxy-4-methoxyphenyl)-2-(methylsulfonyl)ethyl]-2,3-dihydro-1,3-dioxo-1H-isoindol-4-yl]acetamide], the D90 ([1]; listed as E) is given as < 18 microm.
For `CCO` [ethanol], the “solubility in water (in words)” value ([3]; organic solvent) is given as “freely soluble in water” and the “solubility in H2O” value [3] is given as 100 %w/w.
In the case of `CC(C)=O` [acetone], the “solubility in water (in words)” value ([3]; organic solvent) is given as “freely soluble in water” and the “solubility in H2O” value [3] is given as 100 %w/w.
For `CCOC(C)=O` [ethyl acetate], the “aqueous solubility / water solubility” value ([3]; organic solvent) is listed as 8.7 % w/w and the “solubility in H2O” value [3] is listed as 8.7 %w/w.
For `CCOc1cc([C@@H](CS(C)(=O)=O)N2C(=O)c3cccc(NC(C)=O)c3C2=O)ccc1OC` [Form C, N-[2-[(1S)-1-(3-ethoxy-4-methoxyphenyl)-2-(methylsulfonyl)ethyl]-2,3-dihydro-1,3-dioxo-1H-isoindol-4-yl]acetamide], the D90 ([1]; listed as C) is given as < 12 microm.
In the case of `CC#N` [acetonitrile], the “solubility in H2O” value [3] is given as 100 %w/w.
For `ClCCl` [methylene chloride], the “solubility in H2O” value [3] is listed as 1.6 %w/w.
